Measurements as given in article PMC11823630, “In vitro potentiation of tetracyclines in Pseudomonas aeruginosa by RW01, a new cyclic peptide” (Antimicrobial Agents and Chemotherapy, 2024).

Key:
[1] = test system: PAO1 mutant MIN1_RW01_3, pmrB(V215L); assay: MIC, Sensititre custom plate; type: cell-based; conditions: Pseudomonas aeruginosa, PAO1, read-out: MIC, Sensititre
Procedure: (§1) Selection of resistant mutants was performed for minocycline with and without RW01 in three independent replicates for wild-type P. aeruginosa reference strain PAO1. Tubes containing Mueller-Hinton broth (MHB) were inoculated and incubated for 24 h at 37°C. Afterward, 1/100 dilution of each tube was incubated at 37°C in MHB to late-exponential growth phase, measured by spectrophotometry at OD600. […] A control plate without antibiotic was included as inoculum control. After overnight incubation, colony counting of each treatment was performed to analyze the generation of resistant population. The mutant prevention concentration (MPC) was defined as the lowest concentration of antibiotic yielding no growth of resistant mutants. Selected mutants were checked for susceptibility profiles by using a Sensititre custom plate (Thermo Fisher Scientific, Massachusetts, USA) for Gram-negative bacteria, following the manufacturer’s instructions.

[2] = test system: PAO1 mutant MIN16_1, nalD(T43P); assay: MIC, Sensititre custom plate; type: cell-based; conditions: Pseudomonas aeruginosa, PAO1, read-out: MIC, Sensititre
Procedure: as §1

[3] = test system: PAO1 mutant MIN2_RW01_1, pmrB(V215L); assay: MIC, Sensititre custom plate; type: cell-based; conditions: Pseudomonas aeruginosa, PAO1, read-out: MIC, Sensititre
Procedure: as §1

[4] = test system: PAO1 mutant MIN4_RW01_3, pmrB(M292T); assay: MIC, Sensititre custom plate; type: cell-based; conditions: Pseudomonas aeruginosa, PAO1, read-out: MIC, Sensititre
Procedure: as §1

[5] = test system: PAO1 mutant MIN8_2, pilZ(nt18InsT); assay: MIC, Sensititre custom plate; type: cell-based; conditions: Pseudomonas aeruginosa, PAO1, read-out: MIC, Sensititre
Procedure: as §1

[6] = test system: PAO1 mutant MIN16_4, nalC(T50P), pilM(Q62X); assay: MIC, Sensititre custom plate; type: cell-based; conditions: Pseudomonas aeruginosa, PAO1, read-out: MIC, Sensititre
Procedure: as §1

[7] = test system: PAO1 mutant MIN4_RW01_1, pmrB(R429H); assay: MIC, Sensititre custom plate; type: cell-based; conditions: Pseudomonas aeruginosa, PAO1, read-out: MIC, Sensititre
Procedure: as §1

[8] = test system: PAO1 mutant MIN1_RW01_2, mexR(G58E), pilB(G326D), hutC(Y181X); assay: MIC, Sensititre custom plate; type: cell-based; conditions: Pseudomonas aeruginosa, PAO1, read-out: MIC, Sensititre
Procedure: as §1

[9] = test system: PAO1 mutant MIN4_RW01_4, pmrB(Y98N); assay: MIC, Sensititre custom plate; type: cell-based; conditions: Pseudomonas aeruginosa, PAO1, read-out: MIC, Sensititre
Procedure: as §1

[10] = test system: PAO1 mutant MIN8_4, pilZ(nt18InsT); assay: MIC, Sensititre custom plate; type: cell-based; conditions: Pseudomonas aeruginosa, PAO1, read-out: MIC, Sensititre
Procedure: as §1

[11] = test system: PAO1 mutant MIN2_RW01_3, parS(V152A); assay: MIC, Sensititre custom plate; type: cell-based; conditions: Pseudomonas aeruginosa, PAO1, read-out: MIC, Sensititre
Procedure: as §1

[12] = test system: PAO1 mutant MIN2_RW01_2, pmrB(M292T); assay: MIC, Sensititre custom plate; type: cell-based; conditions: Pseudomonas aeruginosa, PAO1, read-out: MIC, Sensititre
Procedure: as §1

[13] = test system: PAO1 mutant MIN16_3, nfxB(nt79∆14), pilB(N349K); assay: MIC, Sensititre custom plate; type: cell-based; conditions: Pseudomonas aeruginosa, PAO1, read-out: MIC, Sensititre
Procedure: as §1

[14] = test system: PAO1 mutant MIN8_1, nalD(R3C), pilM(Q62X); assay: MIC, Sensititre custom plate; type: cell-based; conditions: Pseudomonas aeruginosa, PAO1, read-out: MIC, Sensititre
Procedure: as §1

[15] = test system: PAO1 mutant MIN2_RW01_4, pmrB(M292T); assay: MIC, Sensititre custom plate; type: cell-based; conditions: Pseudomonas aeruginosa, PAO1, read-out: MIC, Sensititre
Procedure: as §1

[16] = test system: PAO1 mutant MIN16_2, nalC(aa9∆4), pilQ(nt46∆1); assay: MIC, Sensititre custom plate; type: cell-based; conditions: Pseudomonas aeruginosa, PAO1, read-out: MIC, Sensititre
Procedure: as §1

[17] = test system: P. aeruginosa PAO1, WT; assay: MIC, Sensititre custom plate; type: cell-based; conditions: Pseudomonas aeruginosa, PAO1, read-out: MIC, Sensititre
Procedure: as §1

[18] = test system: PAO1 mutant MIN1_RW01_1, pmrB(Y98N); assay: MIC, Sensititre custom plate; type: cell-based; conditions: Pseudomonas aeruginosa, PAO1, read-out: MIC, Sensititre
Procedure: as §1

[19] = test system: PAO1 mutant MIN32_1, mexR(R63H), pilB(N349K), PA0646(V316G); assay: MIC, Sensititre custom plate; type: cell-based; conditions: Pseudomonas aeruginosa, PAO1, read-out: MIC, Sensititre
Procedure: as §1

[20] = test system: PAO1 mutant MIN8_3, pilZ(nt18InsT); assay: MIC, Sensititre custom plate; type: cell-based; conditions: Pseudomonas aeruginosa, PAO1, read-out: MIC, Sensititre
Procedure: as §1

[21] = test system: P. aeruginosa PAO1; assay: MIC, CLSI broth microdilution in BD Phoenix AST Broth; type: cell-based, Pseudomonas aeruginosa; conditions: Pseudomonas aeruginosa, PAO1, strain PAO1; agent alone; 37°C, 18–22 h; three biological replicates; read-out: MIC
Procedure: (§2) MIC for RW01 was also tested.
(§3) FIC of RW01 (FICRW01)=MIC of RW01 in combination/MIC of RW01 alone,FIC of antibiotic (FICATB)=MIC of ATB in combination/MIC of ATB alone,FICI=FICRW01 +FICATB.
(§4) FICI was interpreted as follows: synergistic effect if FICI is ≤0.5; additive effect if 0.5 < FICI ≤ 1.0; indifferent effect if 1.0 < FICI ≤ 2.0; and finally, antagonistic effect if FICI is >2.0. The average FICI considering the antibiotic MIC (no growth in any of the replicates) at different concentrations of RW01 was calculated ([28]).

[22] = test system: P. aeruginosa 41A; assay: as above; type: cell-based, Pseudomonas aeruginosa; conditions: Pseudomonas aeruginosa; strain 41A; agent alone; 37°C, 18–22 h; three biological replicates
Procedure: as §2, §3, §4

[23] = test system: P. aeruginosa PAOΔmexR; assay: as above; type: cell-based, Pseudomonas aeruginosa; conditions: Pseudomonas aeruginosa
Procedure: as §2, §3, §4

[24] = test system: P. aeruginosa 125B; assay: as above; type: cell-based, Pseudomonas aeruginosa; conditions: Pseudomonas aeruginosa; strain 125B; agent alone; 37°C, 18–22 h; three biological replicates
Procedure: as §2, §3, §4

[25] = test system: P. aeruginosa PAOUW∆oprF; assay: as above; type: cell-based, Pseudomonas aeruginosa; conditions: Pseudomonas aeruginosa, strain PAOUWΔoprF; agent alone; 37°C, 18–22 h; three biological replicates
Procedure: as §2, §3, §4

[26] = test system: P. aeruginosa PAOUW; assay: as above; type: cell-based, Pseudomonas aeruginosa; conditions: Pseudomonas aeruginosa, strain PAOUW; agent alone; 37°C, 18–22 h; three biological replicates; read-out: MIC
Procedure: as §2, §3, §4

[27] = test system: P. aeruginosa 125A; assay: as above; type: cell-based, Pseudomonas aeruginosa; conditions: Pseudomonas aeruginosa; strain 125A; agent alone; 37°C, 18–22 h; three biological replicates
Procedure: as §2, §3, §4

[28] = test system: P. aeruginosa PAOΔoprM; assay: as above; type: cell-based, Pseudomonas aeruginosa; conditions: Pseudomonas aeruginosa
Procedure: as §2, §3, §4

[29] = test system: P. aeruginosa PAOΔmexZ; assay: as above; type: cell-based, Pseudomonas aeruginosa; conditions: Pseudomonas aeruginosa, strain PAOΔmexZ; agent alone; 37°C, 18–22 h; three biological replicates
Procedure: as §2, §3, §4

[30] = test system: P. aeruginosa 41B; assay: as above; type: cell-based, Pseudomonas aeruginosa; conditions: Pseudomonas aeruginosa; strain 41B; agent alone; 37°C, 18–22 h; three biological replicates
Procedure: as §2, §3, §4

[31] = test system: PAO1 mutant MIN4_RW01_2, pmrB(F124S); assay: microbe, parasite or virus in culture; type: cell-based; conditions: Pseudomonas aeruginosa, PAO1, read-out: MIC, Sensititre
Procedure: as §1

[32] = test system: PAO1 mutant MIN1_RW01_4, pmrB(F124L); assay: microbe, parasite or virus in culture; type: cell-based; conditions: Pseudomonas aeruginosa, PAO1, read-out: MIC, Sensititre
Procedure: as §1

Measured: MIC

C[C@@H](O)[C@H]1C(=O)N2C(C(=O)O)=C(SCCN=CN)C[C@H]12 [Imipenem, imipenem]
1 µg/mL: [8] | [13]
2 to 4 µg/mL: [2] | [7]
4 µg/mL: [3] | [9]
1 to 2 µg/mL: [17]
0.5 µg/mL: [23]
16 µg/mL: [4] | [30]
8 µg/mL: [11] | [26]
2 µg/mL: all other assays above
